The results in this text go back to US9029386B2, “Pyridine derivatives useful as kinase inhibitors” (YM Biosciences Australia Pty Ltd, priority 2006, dated 2015).

For one assay, the target named is T1, EphA8(h) (Homo sapiens, UniProt P29322).
T1 construct: purchased Upstate Biotechnology (Dundee, UK), KinaseProfiler service
T1 sequence (P29322 28-1005): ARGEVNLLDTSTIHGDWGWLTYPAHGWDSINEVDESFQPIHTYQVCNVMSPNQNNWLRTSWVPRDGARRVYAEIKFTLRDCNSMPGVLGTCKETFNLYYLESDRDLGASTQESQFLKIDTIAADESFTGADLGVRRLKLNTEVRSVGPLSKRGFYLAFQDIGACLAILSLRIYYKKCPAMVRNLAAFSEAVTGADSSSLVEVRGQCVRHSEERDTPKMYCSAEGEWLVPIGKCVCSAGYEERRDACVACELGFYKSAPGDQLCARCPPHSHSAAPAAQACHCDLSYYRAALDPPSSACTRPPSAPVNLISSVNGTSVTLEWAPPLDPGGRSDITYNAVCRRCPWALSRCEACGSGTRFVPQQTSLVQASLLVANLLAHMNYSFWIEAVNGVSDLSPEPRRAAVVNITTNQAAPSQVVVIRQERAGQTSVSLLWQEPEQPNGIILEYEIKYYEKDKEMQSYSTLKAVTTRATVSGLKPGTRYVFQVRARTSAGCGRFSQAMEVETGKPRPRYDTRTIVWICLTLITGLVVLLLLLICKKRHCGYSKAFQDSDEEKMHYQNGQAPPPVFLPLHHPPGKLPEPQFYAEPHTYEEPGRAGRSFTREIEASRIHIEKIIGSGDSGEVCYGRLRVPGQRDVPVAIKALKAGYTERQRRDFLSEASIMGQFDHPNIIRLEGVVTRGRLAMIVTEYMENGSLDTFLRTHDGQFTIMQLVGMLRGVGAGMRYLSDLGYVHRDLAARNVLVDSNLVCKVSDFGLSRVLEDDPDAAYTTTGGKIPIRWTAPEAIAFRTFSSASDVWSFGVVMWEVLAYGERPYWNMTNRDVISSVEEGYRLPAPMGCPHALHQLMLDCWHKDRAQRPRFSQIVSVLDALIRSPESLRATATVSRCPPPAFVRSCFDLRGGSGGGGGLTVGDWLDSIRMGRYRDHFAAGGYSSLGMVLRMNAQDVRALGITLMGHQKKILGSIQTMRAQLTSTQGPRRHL
Put plainly: KinaseProfiler assay (Upstate), EphA8. Type of assay: biochemical. The method, then:
(§1) Further enzyme assays were conducted at Upstate Biotechnology (Dundee, UK) in the KinaseProfiler™ Assay system.
(§2) The general protocol is as follows. All kinases are pre-diluted to a 10× working concentration prior to addition into the assay. The composition of the dilution buffer for the kinases is 20 mM MOPS pH 7.0, 1 mM EDTA, 0.1% β-mercaptoethanol, 0.01% Brij-35, 5% glycerol, 1 mg/ml BSA. All substrates are dissolved and diluted to working stocks in de-ionised water.

The target of assay [1] is T2, kinase domain of human c-kit (Homo sapiens, UniProt P10721).
T2 construct: from codon M552 to end; made in house; host or cells: Sf9 insect cells (baculovirus)
Put plainly: Alphascreen protein tyrosine kinase assay, c-KIT. In kind it is biochemical.

For a further assay, the target named is T3, Ret(h) (Homo sapiens, UniProt P07949).
T3 construct: purchased Upstate Biotechnology (Dundee, UK), KinaseProfiler service
Briefly: KinaseProfiler assay (Upstate), Ret. Type of assay: biochemical. The method, then:
as §1, §2
In a final reaction volume of 25 μl, Ret (h) (5-10 mU) is incubated with 8 mM MOPS pH 7.0, 0.2 mM EDTA, 250 μM […], 10 mM MgAcetate and [γ-33P-ATP] (specific activity approx. 500 cpm/pmol, concentration as required). The reaction is initiated by the addition of the MgATP mix. After incubation for 40 minutes at room temperature, the reaction is stopped by the addition of 5 μl of a 3% phosphoric acid solution. 10 μl of the reaction is then spotted onto a P30 filtermat and washed three times for 5 minutes in 75 mM phosphoric acid and once in methanol prior to drying and scintillation counting.

A further assay concerns the target T4, cSRC(h) (Homo sapiens, UniProt P12931).
T4 construct: purchased Upstate Biotechnology (Dundee, UK), KinaseProfiler service
Put plainly: KinaseProfiler assay (Upstate), cSRC. Type of assay: biochemical. The method, then: as §1, §2

Another assay addresses T5, Flt1(h) (Homo sapiens, UniProt P17948).
T5 construct: purchased Upstate Biotechnology (Dundee, UK), KinaseProfiler service
Briefly: KinaseProfiler assay (Upstate), Flt1. Type of assay: biochemical. The method, then:
as §1, §2
In a final reaction volume of 25 Flt1 (h) (5-10 mU) is incubated with 8 mM MOPS pH 7.0, 0.2 mM EDTA, 250 μM […], 10 mM MgAcetate and [γ-33P-ATP] (specific activity approx. 500 cpm/pmol, concentration as required). The reaction is initiated by the addition of the MgATP mix. After incubation for 40 minutes at room temperature, the reaction is stopped by the addition of 5 μl of a 3% phosphoric acid solution. 10 μl of the reaction is then spotted onto a P30 filtermat and washed three times for 5 minutes in 75 mM phosphoric acid and once in methanol prior to drying and scintillation counting.

The test system of another assay is Baf3-WT. Put plainly: Cellular assay (Alamar Blue), Baf3-WT with mouse IL-3. In kind it is cell-based. Particulars: mouse IL-3 at 5 ng/ml, 72 hr. The procedure, abridged:
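Compounds were added to cells 1 h before growth factor: human M-CSF 20 ng/ml for mNFS-60, mouse IL-3 5 ng/ml for Baf3-WT. After 72 h at 37 °C, 5% CO2, Alamar Blue was added for a further 4-8 h; fluorescence read at 544 ex/590 em.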
For orientation: The colour change of resazurin is a common sign of viable cells or microbes.

T2 sequence (P10721 552-976 limits assumed): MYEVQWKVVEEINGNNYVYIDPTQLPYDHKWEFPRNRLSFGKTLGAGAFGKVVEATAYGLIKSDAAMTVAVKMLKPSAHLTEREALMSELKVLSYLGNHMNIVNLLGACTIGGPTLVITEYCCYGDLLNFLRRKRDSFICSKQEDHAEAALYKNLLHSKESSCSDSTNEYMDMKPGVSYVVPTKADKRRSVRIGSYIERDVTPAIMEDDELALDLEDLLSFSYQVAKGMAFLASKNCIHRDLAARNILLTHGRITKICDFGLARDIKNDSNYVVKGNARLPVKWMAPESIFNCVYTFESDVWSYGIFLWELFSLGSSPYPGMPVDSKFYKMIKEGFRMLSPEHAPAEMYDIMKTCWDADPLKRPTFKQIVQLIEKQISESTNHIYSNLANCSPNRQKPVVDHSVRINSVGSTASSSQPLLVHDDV
T5 sequence (P17948 27-1338): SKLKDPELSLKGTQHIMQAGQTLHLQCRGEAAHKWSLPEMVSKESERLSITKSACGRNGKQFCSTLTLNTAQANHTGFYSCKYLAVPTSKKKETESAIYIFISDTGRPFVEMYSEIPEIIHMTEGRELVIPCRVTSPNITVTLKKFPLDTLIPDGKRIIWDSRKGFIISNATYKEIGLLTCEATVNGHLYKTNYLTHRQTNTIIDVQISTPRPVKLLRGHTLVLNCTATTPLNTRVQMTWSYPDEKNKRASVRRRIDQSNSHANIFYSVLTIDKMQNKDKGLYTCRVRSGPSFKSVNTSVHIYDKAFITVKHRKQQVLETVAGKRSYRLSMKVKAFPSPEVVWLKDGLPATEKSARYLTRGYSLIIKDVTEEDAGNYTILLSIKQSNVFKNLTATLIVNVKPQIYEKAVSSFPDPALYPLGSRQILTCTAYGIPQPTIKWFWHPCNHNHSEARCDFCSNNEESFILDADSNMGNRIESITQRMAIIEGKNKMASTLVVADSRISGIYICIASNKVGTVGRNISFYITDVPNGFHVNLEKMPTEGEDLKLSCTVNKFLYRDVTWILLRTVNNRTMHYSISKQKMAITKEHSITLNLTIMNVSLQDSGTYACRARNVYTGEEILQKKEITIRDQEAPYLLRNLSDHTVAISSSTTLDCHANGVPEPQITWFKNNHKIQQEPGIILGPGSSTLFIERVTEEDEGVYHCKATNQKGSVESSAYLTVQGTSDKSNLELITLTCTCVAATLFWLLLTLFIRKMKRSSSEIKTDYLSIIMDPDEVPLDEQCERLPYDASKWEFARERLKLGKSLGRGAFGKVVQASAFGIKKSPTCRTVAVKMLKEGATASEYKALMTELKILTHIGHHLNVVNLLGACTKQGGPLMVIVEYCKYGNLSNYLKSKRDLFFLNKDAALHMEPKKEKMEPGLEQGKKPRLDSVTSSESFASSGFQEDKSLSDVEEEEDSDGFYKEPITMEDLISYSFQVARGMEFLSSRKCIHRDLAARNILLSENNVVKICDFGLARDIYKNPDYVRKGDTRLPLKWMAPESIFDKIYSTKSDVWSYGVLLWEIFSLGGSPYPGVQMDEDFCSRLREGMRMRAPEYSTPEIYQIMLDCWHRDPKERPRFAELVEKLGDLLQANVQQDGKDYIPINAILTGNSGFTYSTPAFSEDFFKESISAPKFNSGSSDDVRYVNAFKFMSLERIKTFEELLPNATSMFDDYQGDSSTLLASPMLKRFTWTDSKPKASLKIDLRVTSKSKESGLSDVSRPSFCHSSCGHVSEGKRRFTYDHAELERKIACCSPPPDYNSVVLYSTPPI
T4 sequence (P12931 whole entry): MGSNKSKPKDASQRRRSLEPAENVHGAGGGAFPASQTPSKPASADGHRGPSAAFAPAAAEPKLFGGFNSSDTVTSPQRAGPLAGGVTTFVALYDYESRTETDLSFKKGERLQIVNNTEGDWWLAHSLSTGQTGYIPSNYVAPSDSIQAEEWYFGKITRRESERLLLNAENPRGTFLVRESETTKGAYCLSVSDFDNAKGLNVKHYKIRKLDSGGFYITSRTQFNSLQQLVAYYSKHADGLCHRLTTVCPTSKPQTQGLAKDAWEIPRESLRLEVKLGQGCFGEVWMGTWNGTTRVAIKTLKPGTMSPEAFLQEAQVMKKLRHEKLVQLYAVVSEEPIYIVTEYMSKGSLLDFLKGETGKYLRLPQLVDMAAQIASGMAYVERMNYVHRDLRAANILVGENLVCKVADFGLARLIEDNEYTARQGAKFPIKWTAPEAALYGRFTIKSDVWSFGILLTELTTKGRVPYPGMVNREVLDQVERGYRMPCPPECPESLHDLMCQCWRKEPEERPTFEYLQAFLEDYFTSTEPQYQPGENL
T3 sequence (P07949 29-1114): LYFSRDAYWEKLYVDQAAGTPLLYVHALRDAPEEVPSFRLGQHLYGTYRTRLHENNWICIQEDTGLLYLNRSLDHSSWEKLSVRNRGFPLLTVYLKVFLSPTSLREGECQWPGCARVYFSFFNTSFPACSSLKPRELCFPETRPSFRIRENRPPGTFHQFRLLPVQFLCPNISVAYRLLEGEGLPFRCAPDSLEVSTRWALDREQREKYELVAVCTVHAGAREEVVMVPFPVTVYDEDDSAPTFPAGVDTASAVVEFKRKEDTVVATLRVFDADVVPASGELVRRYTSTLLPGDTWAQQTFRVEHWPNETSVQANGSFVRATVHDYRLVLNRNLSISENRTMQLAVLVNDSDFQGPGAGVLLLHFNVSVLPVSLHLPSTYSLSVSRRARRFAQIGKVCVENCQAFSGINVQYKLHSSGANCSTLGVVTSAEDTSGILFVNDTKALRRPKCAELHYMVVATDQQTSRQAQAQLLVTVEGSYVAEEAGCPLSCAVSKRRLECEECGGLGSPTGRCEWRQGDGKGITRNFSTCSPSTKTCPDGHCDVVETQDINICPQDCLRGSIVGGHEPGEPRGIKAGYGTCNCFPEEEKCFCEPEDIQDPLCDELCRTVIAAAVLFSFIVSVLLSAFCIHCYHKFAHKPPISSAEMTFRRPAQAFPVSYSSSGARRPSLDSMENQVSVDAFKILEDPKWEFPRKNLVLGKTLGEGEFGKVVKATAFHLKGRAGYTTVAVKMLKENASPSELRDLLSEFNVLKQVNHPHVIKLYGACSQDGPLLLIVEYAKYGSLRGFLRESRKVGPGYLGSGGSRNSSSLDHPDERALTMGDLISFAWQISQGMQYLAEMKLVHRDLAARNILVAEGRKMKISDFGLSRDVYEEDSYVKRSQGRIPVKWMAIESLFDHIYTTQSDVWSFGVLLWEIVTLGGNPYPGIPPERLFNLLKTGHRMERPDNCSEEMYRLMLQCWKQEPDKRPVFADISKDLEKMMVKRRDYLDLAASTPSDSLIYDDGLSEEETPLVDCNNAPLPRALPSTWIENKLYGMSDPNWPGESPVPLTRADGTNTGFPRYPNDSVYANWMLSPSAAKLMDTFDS

Broadly, the inhibition is the change of the read-out against control, counted positive when it falls. By IC50 is commonly meant the midpoint of a concentration-inhibition curve. In the case of `Cc1cccc(C(=O)Nc2cccc([C@H](C)Nc3cncc(-n4ccnc4)n3)c2)c1` [Compound 143, (S)—N-(3-(1-(6-(1H-imidazol-1-yl)pyrazin-2-ylamino)ethyl)phenyl)-3-methylbenzamide], the inhibition at 0.1 µM against EphA8(h) was determined as 30%; at Ret(h), 8%; against cSRC(h), 14%; on Flt1(h), 90%. Besides, the inhibition at 1 µM came out at 82% at EphA8(h), 58% on Ret(h), 65% on cSRC(h) and 96% on Flt1(h). Moreover, the values for the IC50 (in assay [1]; in the assay on Baf3-WT) were < 0.1 µM and < 10 µM, respectively.

As to `C[C@H](Nc1cncc(-c2cccc(N3CCOCC3)c2)n1)c1cccc(NC(=O)c2cccc(C(F)(F)F)c2)c1` [Compound 149], the inhibition at 0.1 µM is 81% against EphA8(h), 89% against Ret(h), 69% against cSRC(h) and 56% against Flt1(h). Moreover, the inhibition at 1 µM came to 103% at EphA8(h), 96% against Ret(h), 96% at cSRC(h) and 99% on Flt1(h). Besides, the IC50 is < 1 µM in assay [1] and > 10 µM in the assay with Baf3-WT.

In the case of `C[C@H](Nc1cncc(Cl)n1)c1cccc(NC(=O)c2cccc(C(F)(F)F)c2)c1` [Compound 114, (S)—N-(3-(1-(6-chloropyrazin-2-ylamino)ethyl)phenyl)-3-(trifluoromethyl)benzamide], the inhibition at 0.1 µM against EphA8(h) came out at 67%; on Ret(h), 66%; at cSRC(h), 24%; against Flt1(h), 85%. For the same compound, the inhibition at 1 µM against EphA8(h) worked out at 97%; at Ret(h), 95%; against cSRC(h), 80%; on Flt1(h), 99%. The IC50 in assay [1] was < 1 µM; in the assay with Baf3-WT it was > 10 µM.

Turning to `Cc1cccc(C(=O)Nc2cccc([C@H](C)Nc3cncc(-c4cccc(N5CCOCC5)c4)n3)c2)c1` [Compound 147], the inhibition at 0.1 µM at EphA8(h) is 71%; at Ret(h), 68%; on cSRC(h) it was 45%; against Flt1(h), 95%. Moreover, the inhibition at 1 µM against EphA8(h) turned out to be 98%; on Ret(h), 92%; on cSRC(h), 87%; at Flt1(h), 100%. The figures for the IC50 (in assay [1]; with Baf3-WT) were < 0.1 µM and > 10 µM, respectively.

Take `Cc1cccc(C(=O)Nc2cccc([C@H](C)Nc3cncc(-c4ccc(S(N)(=O)=O)cc4)n3)c2)c1` [Compound 77]: the inhibition at 0.1 µM came to 66% against EphA8(h), 22% at Ret(h), 23% against cSRC(h) and 98% at Flt1(h). Further, the inhibition at 1 µM stood at 99% at EphA8(h), 67% at Ret(h), 74% at cSRC(h) and 100% on Flt1(h). The IC50 in assay [1] was < 0.1 µM; in the assay with Baf3-WT, > 10 µM.

With `Cc1cccc(C(=O)Nc2cccc([C@H](C)Nc3cncc(C(N)=O)n3)c2)c1` [Compound 133, (S)-6-(1-(3-(3-methylbenzamido)phenyl)ethylamino)pyrazine-2-carboxamide], the inhibition at 0.1 µM on EphA8(h) was determined as 7%; against Ret(h), 1%; on cSRC(h) it was 1%; on Flt1(h), 92%. Besides, the inhibition at 1 µM was determined as 64% on EphA8(h), 36% against Ret(h), 14% on cSRC(h) and 99% on Flt1(h). In addition, the IC50 is < 0.1 µM in assay [1] and > 10 µM with Baf3-WT.

For the compound `C[C@H](Nc1cncc(-c2ccc(N3CCN(C)CC3)cc2)n1)c1cccc(NC(=O)c2cccc(C(F)(F)F)c2)c1` [Compound 148], the inhibition at 0.1 µM against EphA8(h) was determined as 81%; against Ret(h) it was 89%; against cSRC(h), 86%; at Flt1(h) it was 92%. For the same compound, the inhibition at 1 µM came to 100% at EphA8(h), 96% against Ret(h), 96% against cSRC(h) and 99% against Flt1(h). The figures for the IC50 (in assay [1]; in the assay with Baf3-WT) were < 0.1 µM and < 10 µM, respectively.

Consider `Cc1cccc(C(=O)Nc2cccc([C@H](C)Nc3cncc(-c4ccc(N5CCN(C)CC5)cc4)n3)c2)c1` [Compound 129], for which the inhibition at 0.1 µM was determined as 42% against EphA8(h), 19% against Ret(h), 38% at cSRC(h) and 96% against Flt1(h). Also, the inhibition at 1 µM at EphA8(h) was found to be 90%; on Ret(h), 75%; against cSRC(h), 85%; on Flt1(h) it was 100%. Further, the IC50 in assay [1] was < 0.1 µM; with Baf3-WT, < 10 µM.

Take `Cc1cccc(C(=O)Nc2ccc(C)c([C@H](C)Nc3cncc(Cl)n3)c2)c1` [Compound 168]: the inhibition at 0.1 µM is 91% against EphA8(h), 39% against Ret(h), 53% on cSRC(h) and 91% at Flt1(h). Moreover, the inhibition at 1 µM on EphA8(h) was determined as 102%; against Ret(h), 95%; at cSRC(h), 95%; against Flt1(h), 100%.
